Like-named read-outs stand apart in the source and are kept apart here.
Key:
BRD9 = molecular target: T1, BRD9 (Homo sapiens, UniProt Q9H8M2); test: Western blot of BRD9 levels in HeLa cells after compound treatment; type: cell-based; conditions: 1 μM compound; for remaining activity at 1 µM: Table 2, % of total protein remaining relative to 0.1% DMSO vehicle, HeLa cell lysates; for BRD9 degradation: HeLa cells
T1 construct: Western blot analysis of BRD9 and BRD7 levels after treatment of HeLa cells; endogenous in cells; host or cells: HeLa
T1 sequence (Q9H8M2 1-597): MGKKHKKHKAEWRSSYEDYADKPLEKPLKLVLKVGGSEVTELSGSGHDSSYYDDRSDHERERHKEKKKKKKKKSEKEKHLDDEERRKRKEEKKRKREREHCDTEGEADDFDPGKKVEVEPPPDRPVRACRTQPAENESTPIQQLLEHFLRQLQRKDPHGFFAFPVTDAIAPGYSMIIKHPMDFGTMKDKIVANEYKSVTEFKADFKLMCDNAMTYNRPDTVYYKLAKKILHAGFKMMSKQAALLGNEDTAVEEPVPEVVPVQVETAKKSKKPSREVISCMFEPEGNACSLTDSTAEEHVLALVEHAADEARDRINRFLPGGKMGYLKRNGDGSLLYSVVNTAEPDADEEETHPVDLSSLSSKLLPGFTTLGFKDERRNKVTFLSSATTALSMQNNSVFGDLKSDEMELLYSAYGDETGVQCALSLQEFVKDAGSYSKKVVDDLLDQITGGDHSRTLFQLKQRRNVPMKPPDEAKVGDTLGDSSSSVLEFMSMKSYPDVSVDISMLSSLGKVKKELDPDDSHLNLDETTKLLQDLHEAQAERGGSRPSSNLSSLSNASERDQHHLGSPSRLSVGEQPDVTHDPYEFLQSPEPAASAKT

BRD7 = molecular target: T2, BRD7 (Homo sapiens, UniProt Q9NPI1); test: Western blot of BRD7 levels in HeLa cells after compound treatment; type: cell-based; conditions: 1 μM compound; for remaining activity at 1 µM: Table 2, % of total protein remaining relative to 0.1% DMSO vehicle, HeLa cell lysates; for BRD7 degradation: HeLa cells
T2 construct: Western blot analysis of BRD9 and BRD7 levels after treatment of HeLa cells; endogenous in cells; host or cells: HeLa
T2 sequence (Q9NPI1 1-651): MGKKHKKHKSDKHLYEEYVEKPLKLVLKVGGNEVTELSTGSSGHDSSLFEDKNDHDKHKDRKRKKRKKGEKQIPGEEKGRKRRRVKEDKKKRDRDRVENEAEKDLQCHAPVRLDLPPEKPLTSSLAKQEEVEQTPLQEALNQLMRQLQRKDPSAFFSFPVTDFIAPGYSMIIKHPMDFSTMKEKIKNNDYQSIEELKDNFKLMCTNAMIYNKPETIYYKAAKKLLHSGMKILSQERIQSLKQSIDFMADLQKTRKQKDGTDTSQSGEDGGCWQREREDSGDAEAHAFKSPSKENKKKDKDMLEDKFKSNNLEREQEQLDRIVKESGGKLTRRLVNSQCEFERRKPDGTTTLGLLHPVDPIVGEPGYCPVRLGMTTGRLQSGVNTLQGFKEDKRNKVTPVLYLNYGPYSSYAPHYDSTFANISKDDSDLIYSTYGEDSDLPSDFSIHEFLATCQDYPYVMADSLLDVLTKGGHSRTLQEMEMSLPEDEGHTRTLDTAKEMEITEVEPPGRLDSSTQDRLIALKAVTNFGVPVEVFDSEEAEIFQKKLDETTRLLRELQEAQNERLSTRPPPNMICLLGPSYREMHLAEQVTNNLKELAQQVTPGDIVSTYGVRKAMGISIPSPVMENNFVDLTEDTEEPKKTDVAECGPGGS
Method: HeLa and Hek293 cells were seeded at either 0.3 × 10^6 or 0.5 × 10^6 cells per well in 6-well plate in 2 mL of medium. At 80% confluency, cells were treated with compounds at the desired concentration, with final DMSO concentration of 0.1% v/v. Cells were incubated at 37 °C and 5% of CO2 for the desired time before harvesting. For protein extraction from adherent cells, cells were washed twice with DPBS (Gibco) and lysed with RIPA buffer (Sigma-Aldrich), supplemented with cOmplete Mini EDTA-free protease inhibitor cocktail (Roche). Insoluble material was removed by centrifugation at 14 000 rpm for 15 min at 4 °C. Supernatant was collected and protein concentration was quantified by Bradford assay (Thermo Scientific no. 23200, mean of two replicates). For RI-1 cells, (1–1.5) × 10^6 cells/mL were seeded in 6-well plate in 2 mL of medium. The day after, cells were treated with compounds at the desired concentration, with final DMSO concentration of 0.1% v/v. Before harvesting, cells were incubated at 37 °C and 5% CO2 for the desired time. Cells were washed twice with DPBS (Gibco) and lysed with RIPA buffer (Sigma-Aldrich), supplemented with cOmplete Mini EDTA-free protease inhibitor cocktail (Roche). Lysates were sonicated (10 s) and centrifuged at 14 000 rpm for 20 min at 4 °C. Supernatant was collected, and protein concentration was quantified by Bradford assay (mean of two replicates). For EOL-1 and A-204 cell line, 20 000 cells were seeded in 300 μL per well in a 24-well plate and incubated at 37 °C overnight. Compounds were added from DMSO stock solution using a digital dispenser D300 (Tecan), normalizing for added DMSO, and cells were incubated at 37 °C for 18 h. Medium was removed, and cells were washed with PBS and lysed in 80 μL of lysis buffer (1% Triton, 350 mM KCl, 10 mM Tris, pH 7,4, phosphatase-protease inhibitor cocktail (Thermo Scientific no. 1861281), 10 mM DTT, Benzonase 0.5 μL/ml (Novagen no. 70746 10KU, 25 U/μL)) for 30 min on ice before insoluble debris was pelleted by centrifugation.
Proteins were resolved by SDS–PAGE on NuPage 4–12% Bis-Tris Midi Gel (Invitrogen) and transferred to Amersham Protran 0.45 NC nitrocellulose membrane (GE Healthcare) using wet transfer. The membrane was blocked with 5% w/v milk in Tris-buffered saline (TBS) with 0.1% w/v Tween-20. The following primary antibodies at the given concentration were used: anti β-actin (Cell Signaling Technology, 4970S, 13E5) 1:2000, anti-Brd9 (Bethyl A303-781A) 1:1000, anti-Brd7 (Bethyl A302-304A) 1:1000, VHL rabbit Ab (Cell Signaling Technology, no. 68547S) 1:1000, anti-CRBN (Novus Bio, NBP 1-9-1810) 1:1000, anti-actin hFAB rhodamine antibody, Bio-Rad, no. 12004164. Following incubation with horseradish peroxidase-conjugated secondary antibody (Cell Signaling Technology) or IRDye secondary antibody (Licor), bands were developed using Amersham ECL Prime Western blotting detection kit on Amersham Hyperfilm ECL film (Amersham) or ChemiDoc imaging system (Bio-Rad). ImageJ software was used for band quantification, and the last was reported as relative amount as ratio of each protein band relative to the lane’s loading control. Then the values obtained were normalized to 0.1% DMSO vehicle control. Alternatively, protein levels were determined on a WES capillary electrophoresis instrument (Proteinsimple) using a BRD9 antibody (Bethyl A303-781A) and a GAPDH antibody (Abcam no. ab9485) for normalization. DC50 and half-lives were determined by assuming a linear model between the two data points across 50% protein level mark.

remaining activity at 1 µM (BRD9; 4 h, read-out: BRD9 4 h (%)) | BRD9 degradation (BRD9; 4 h) | BRD9 degradation (BRD9; 16 h) | remaining activity at 1 µM (BRD7; 4 h, read-out: BRD7 4 h (%)) | remaining activity at 1 µM (BRD7; 16 h, read-out: BRD7 16 h (%)) | BRD7 degradation (BRD7; 4 h) | BRD7 degradation (BRD7; 16 h) | remaining activity at 1 µM (BRD9; 16 h, read-out: BRD9 16 h (%)) | SMILES
99% | at most 20% | ≤ 30% | 102% | 119% | at most 20% | ≤ 30% |  | COc1cc(-c2cn(C)c(=O)c3cnccc23)cc(OC)c1CN1CCN(CCOCCOCCOCCOCC(=O)N[C@H](C(=O)N2C[C@H](O)C[C@H]2C(=O)NCc2ccc(-c3scnc3C)cc2)C(C)(C)C)CC1 [Compound 6, (2S,4R)-1-((S)-2-(tert-Butyl)-17-(4-(2,6-dimethoxy-4-(2-methyl-1-oxo-1,2-dihydro-2,7-naphthyridin-4-yl)benzyl)piperazin-1-yl)-4-oxo-6,9,12,15-tetraoxa-3-azaheptadecanoyl)-4-hydroxy-N-(4-(4-methylthiazol-5-yl)benzyl)pyrrolidine-2-carboxamide]
 | strong degradation |  |  |  | no BRD7 degradation |  |  | COc1cc(-c2cn(C)c(=O)c3cnccc23)cc(OC)c1CN1CCN(CCOCCOCC(=O)NCCNc2cccc3c2C(=O)N(C2CCC(=O)NC2=O)C3=O)CC1 (stereo not drawn) [Compound 7, 2-(2-(2-(4-(2,6-Dimethoxy-4-(2-methyl-1-oxo-1,2-dihydro-2,7-naphthyridin-4-yl)benzyl)piperazin-1-yl)ethoxy)ethoxy)-N-(2-((2-(2,6-dioxopiperidin-3-yl)-1,3-dioxoisoindolin-4-yl)amino)ethyl)acetamide]
 | strong degradation |  |  |  | no BRD7 degradation |  |  | COc1cc(-c2cn(C)c(=O)c3cnccc23)cc(OC)c1CN1CCN(CCOCCOCCOCCOCC(=O)NCCNc2cccc3c2C(=O)N(C2CCC(=O)NC2=O)C3=O)CC1 (stereo not drawn) [Compound 8, 14-(4-(2,6-Dimethoxy-4-(2-methyl-1-oxo-1,2-dihydro-2,7-naphthyridin-4-yl)benzyl)piperazin-1-yl)-N-(2-((2-(2,6-dioxopiperidin-3-yl)-1,3-dioxoisoindolin-4-yl)amino)ethyl)-3,6,9,12-tetraoxatetradecanamide]
74% |  |  | 95% | 113% |  |  | 73% | COc1cc(-c2cn(C)c(=O)c3cnccc23)cc(OC)c1CN1CCN(C(=O)COCCOCCOCC(=O)N[C@H](C(=O)N2C[C@H](O)C[C@H]2C(=O)NCc2ccc(-c3scnc3C)cc2)C(C)(C)C)CC1 [Compound 25]
